Results as given in publication PMC9917184, “Synthesis and Biological Evaluation of Potential Oncoimmunomodulator Agents” (International Journal of Molecular Sciences, 2023).

How the values were obtained:
c-Myc [1] = test: Total c-Myc relative quantification by flow cytometry in cancer cell lines; type: cell-based, human; settings: 24 h
c-Myc [2] = test: as above; type: cell-based, human
PD-L1 = PD-L1 (Homo sapiens, UniProt Q9NZQ7); test: Total PD-L1 relative quantification by flow cytometry in cancer cell lines; type: cell-based; design: Alexa Fluor® 647 Rabbit monoclonal Anti-PD-L1 (ab215251); endogenous in cells; host or cells: HT-29
PD-L1, sequence (Q9NZQ7 19-290): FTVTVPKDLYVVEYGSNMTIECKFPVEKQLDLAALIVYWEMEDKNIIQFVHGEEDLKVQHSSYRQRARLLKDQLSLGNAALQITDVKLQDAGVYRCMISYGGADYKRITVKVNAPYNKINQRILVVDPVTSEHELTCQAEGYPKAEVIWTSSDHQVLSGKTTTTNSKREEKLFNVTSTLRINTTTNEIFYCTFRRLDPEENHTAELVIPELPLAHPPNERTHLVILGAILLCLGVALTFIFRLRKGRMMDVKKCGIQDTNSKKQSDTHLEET

[3] = A-549, 100 µM, relative to negative control (DMSO)
[4] = HT-29, 100 µM, detected target relative to negative control (DMSO)
[5] = MCF-7, 100 µM, relative to negative control (DMSO)

Row | remaining activity at 10 µM (PD-L1; 24 h, HT-29, dose 10 µM) | remaining activity at 25 µM (PD-L1; 24 h, HT-29, dose 25 µM) | remaining activity at 50 µM (PD-L1; 24 h, HT-29, dose 50 µM) | remaining activity at 10 µM (PD-L1; MCF7, 24 h, MCF-7, dose 10 µM) | remaining activity at 25 µM (PD-L1; MCF7, 24 h, MCF-7, dose 25 µM) | remaining activity at 50 µM (PD-L1; MCF7, 24 h, MCF-7, dose 50 µM) | SMILES | % c-Myc (c-Myc [1]; [3]) | % c-Myc (c-Myc [1]; [4]) | % c-Myc (c-Myc [1]; [5]) | % c-Myc (c-Myc [2]; HT-29, dose 10 µM) | % c-Myc (c-Myc [2]; HT-29, dose 25 µM) | % c-Myc (c-Myc [2]; HT-29, dose 50 µM) | % c-Myc (c-Myc [2]; MCF-7, dose 10 µM) | % c-Myc (c-Myc [2]; MCF-7, dose 25 µM) | % c-Myc (c-Myc [2]; MCF-7, dose 50 µM)
1 |  |  |  |  |  |  | Cc1c(COc2ccc(CN3CCCCC3C(=O)O)cc2Br)cccc1-c1ccccc1 (stereo not drawn) [BMS-8, reference compound] | 142 ± 8% | 119 ± 9% | 130 ± 12% |  |  |  |  |  | 
2 | 101 ± 2% | 111 ± 4% | 90 ± 3% | 52 ± 2% | 58 ± 3% | 69 ± 4% | COc1ccc(C(OCCc2ccc(CCn3cc(-c4ccc(Br)cc4)nn3)cc2)(c2ccccc2)c2ccc(OC)cc2)cc1 [Compound 3, 1-(4-(2-(bis(4-methoxyphenyl)(phenyl)methoxy)ethyl)phenethyl)-4-(4-bromophenyl)-1H-1,2,3-triazole] | 66 ± 5% | 67 ± 8% | 65 ± 4% | 109 ± 9% | 100 ± 3% | 88 ± 5% | 56 ± 5% | 62 ± 5% | 75 ± 9%
3 |  |  |  |  |  |  | COc1ccc(C(OCCc2ccc(CCn3cc(-c4cccc(Br)c4)nn3)cc2)(c2ccccc2)c2ccc(OC)cc2)cc1 [Compound 5, 1-(4-(2-(bis(4-methoxyphenyl)(phenyl)methoxy)ethyl)phenethyl)-4-(3-bromophenyl)-1H-1,2,3-triazole] | 72 ± 9% | 66 ± 10% | 61 ± 11% |  |  |  |  |  | 
4 |  |  |  |  |  |  | COc1ccc(C(OCCc2ccc(CCn3cc(-c4ccccc4Br)nn3)cc2)(c2ccccc2)c2ccc(OC)cc2)cc1 [Compound 7, 1-(4-(2-(bis(4-methoxyphenyl)(phenyl)methoxy)ethyl)phenethyl)-4-(2-bromophenyl)-1H-1,2,3-triazole] | 67 ± 6% | 43 ± 7% | 51 ± 3% |  |  |  |  |  | 
